Measurements: patent US7524927B2, “Compositions, method and kits relating to deletion mutations of immunodeficiency virus gp120 hypervariable regions” (priority 2003, dated 2009)
Read-outs that look alike come from different tables or passages of the source.

How the values were obtained:
[1] = system: HIV-2/VCP virus (wildtype VCP); test: microbe, parasite or virus in culture
Text: (§1) Each virus was innoculated onto SupT1 cells in the presence of varying concentrations of AMD3100 (0, 10, 100, 1,000, and 10,000 nm as indicated).
(§2) This bicyclam specifically blocks CXCR4 function and its ability to serve as a receptor for X4 Envs by binding to two Asp residues at the base of the CXCR4 second and […] extracellular loops.

CXCR4 = molecular target: T1, CXCR4 (Homo sapiens, UniProt P61073); assay type: binding
T1 construct: expressed in transfected cells
T1 sequence (P61073 whole entry): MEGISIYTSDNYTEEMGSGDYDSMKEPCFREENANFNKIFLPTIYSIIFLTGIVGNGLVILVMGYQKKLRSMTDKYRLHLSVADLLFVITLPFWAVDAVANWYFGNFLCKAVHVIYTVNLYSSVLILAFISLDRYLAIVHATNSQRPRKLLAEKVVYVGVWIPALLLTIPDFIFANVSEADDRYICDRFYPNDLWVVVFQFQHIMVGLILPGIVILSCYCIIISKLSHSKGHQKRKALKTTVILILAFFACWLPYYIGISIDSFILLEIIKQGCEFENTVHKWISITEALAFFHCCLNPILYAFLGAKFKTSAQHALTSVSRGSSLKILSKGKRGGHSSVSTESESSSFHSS
Method: Western blot binding assay. […] In this assay, the gp120 of interest is added to cells expressing the desired coreceptor either in the absence or presence of sCD4. After binding for 30 min, the cells are washed, lysed, and bound gp120 detected by western blot.

ΔV3(6,6) virus = conditions: SupT1 cells
Text: as §1, §2

ΔV1/V2; ΔV3(6,6) virus = conditions: SupT1 cells
Text: as §2

[2] = system: V3(6,6); V1/V2 Env pseudotypes; conditions: U87/CD4/CXCR4 target cells; two Env clones
Method: (§3) FIG. 9B is a diagram depicting AMD3100 sensitivity for viral pseudotypes containing the indicated Envs as indicated, i.e., VCP, V3(6,6); V1/V2, and V3(6,6). Sensitivity to AMD3100 was assessed using U87/CD4/CXCR4 target cells. Two different Env clones comprising deletion of V3(6,6) in combination with deletion of V1/V2 are depicted.

VCP Env pseudotype = conditions: U87/CD4/CXCR4 target cells
Method: as §3

V3(6,6) Env pseudotype = conditions: U87/CD4/CXCR4 target cells
Method: as §3

Compound: c1cc(CN2CCCNCCNCCCNCC2)ccc1CN1CCCNCCNCCCNCC1 [AMD3100]
- Sensitivity of virus to AMD3100 ([1]; 0, 10, 100, 1,000, and 10,000 nm AMD3100, SupT1 cells): sensitive
- IC50 ([1]; Human immunodeficiency virus 2, SUP-T1, read-out: IC50 for inhibition of infection of SupT1 cells): ~50 nM
- Inhibition of VCP gp120 binding to CXCR4-expressing cells (CXCR4): inhibitable
- Resistance of virus to AMD3100 (ΔV3(6,6) virus; adapted (p16) virus, up to 10,000 nm AMD3100): completely resistant
- AMD3100 concentration at which virus could not be blocked (ΔV3(6,6) virus; ΔV3(6,6) virus): greater than 10,000 nM
- AMD3100 concentration at which virus could not be blocked (ΔV1/V2; ΔV3(6,6) virus): greater than 10,000 nM
- AMD3100 sensitivity of pseudotype [2]: complete resistance
- AMD3100 sensitivity of pseudotype (VCP Env pseudotype): sensitivity
- AMD3100 sensitivity of pseudotype (V3(6,6) Env pseudotype): complete resistance

Compound: SDF-1: natural chemokine ligand of CXCR4 [reference compound]
- Inhibition of VCP gp120 binding to CXCR4-expressing cells (CXCR4; VCP gp120): inhibitable
